This test concerns Plasmodium berghei. Description: Luciferase/luciferin-expressing antifolate-resistant parasites were used to infect a culture of HepG2 cells that were pre-incubated with compounds. Infected hepatocytes emit light due to the luciferase reaction. Assay results are presented as the percent inhibition of light emission compared to control. […]. The class given is functional. The following applies: sporozoite; for IC90: read-out: LUCIFERASE INFECTION ASSAY - IC90.

[1] abbreviates: read-out: LUCIFERASE INFECTION ASSAY - IC50.

The structures appear in SMILES notation. Some results are limits rather than exact numbers.

Regarding `O=C(c1cccc(C(F)(F)F)c1)N1CCc2c([nH]c3ccccc23)C1C(F)(F)F` (centres undefined), the IC90 is above 8 µM. Further, the IC50 (FFLUC_HILL_SLOPE 6.83, FFLUC_R_SQUARED 0.392, HEPG2TOX_HILL_SLOPE 7.06, HEPG2TOX_R_SQUARED 0.861, PBLUC_HILL_SLOPE 3.46, PBLUC_R_SQUARED 0.38, read-out: LUCIFERASE INFECTION ASSAY - IC50) came to 4.59 µM.

Turning to `CCN1C(=O)N(CCc2ccccc2)C2(CCN(Cc3cccc(OC)c3)CC2)C1=O`, the IC90 was above 7.83 µM. For the setting “HEPG2TOX_HILL_SLOPE 18.8, HEPG2TOX_R_SQUARED 0.873, read-out: LUCIFERASE INFECTION ASSAY - IC50”, the half-maximal inhibitory concentration (IC50) was above 7.83 µM.

As for `O=C(CSc1ncc(C(F)(F)F)cc1C(F)(F)F)Nc1cc(Cl)cc(Cl)c1`, the IC90 was above 7.35 µM. Further, the 50% inhibitory concentration (IC50) (HEPG2TOX_HILL_SLOPE 12.1, HEPG2TOX_R_SQUARED 0.84, PBLUC_HILL_SLOPE 0.731, PBLUC_R_SQUARED 0.558, read-out: LUCIFERASE INFECTION ASSAY - IC50) is 1.53 µM.

`COc1cc(/C=N/Nc2nc(Cl)c(Cl)cc2Cl)ccc1OCC(=O)N1CC(C)OC(C)C1` (centres undefined): the IC90 is above 10 µM. Moreover, the IC50 under setting [1] is above 10 µM.

In the case of `Cc1ccccc1NC(=O)Nc1scc(S(=O)(=O)C(C)C)c1Cl`, the IC90 was above 8.85 µM. Besides, the IC50 under setting [1] was above 8.85 µM.

For the compound `O=C(Cn1nnc2ccccc2c1=O)c1ccc(C2CCCCC2)cc1`, the IC90 is above 10 µM. Further, the 50% inhibitory concentration (IC50) (PBLUC_HILL_SLOPE 0.775, PBLUC_R_SQUARED 0.761, read-out: LUCIFERASE INFECTION ASSAY - IC50) worked out at 1.11 µM.

Consider `O=C(NC1CC1)c1ccc(-c2cnc3cnc(-c4ccc(CNc5ccccc5)cc4)cn23)cc1`, for which the IC90 was above 7.18 µM. For the same compound, under “PBLUC_HILL_SLOPE 4.2, PBLUC_R_SQUARED 0.624, read-out: LUCIFERASE INFECTION ASSAY - IC50”, the IC50 was determined as 4.59 µM.

Regarding `O=C(Nc1ccc(F)cc1)c1cccc(C(=O)Nc2ccc(F)cc2)n1`, the IC90 is 5.69 µM. Also, under setting [1], the IC50 turned out to be 3.45 µM.

As to `CC(C)(C)c1ccc(C(=O)NCc2ccco2)cc1`, the IC90 was found to be 10.4 µM. Besides, under “PBLUC_HILL_SLOPE 5.38, PBLUC_R_SQUARED 0.421, read-out: LUCIFERASE INFECTION ASSAY - IC50”, the IC50 came out at 6.91 µM.

With `FC(F)(F)Oc1ccc(N=C(S)Nc2ccc(OC(F)(F)F)cc2)cc1`, the IC90 is above 8.33 µM. In addition, under setting [1], the IC50 was above 8.33 µM.

Regarding `O=C(NC1CC1)c1ccc(CN(Cc2csc(-c3ccsc3)n2)Cc2ccco2)cc1`, the IC90 worked out at 1.57 µM. For the same compound, for the setting “PBLUC_HILL_SLOPE 18.2, PBLUC_R_SQUARED 0.577, read-out: LUCIFERASE INFECTION ASSAY - IC50”, the IC50 turned out to be 1.39 µM.

Consider `CC1S/C(=C\c2nc3ccccc3s2)NC1=O` (centres undefined), for which the IC90 is above 10 µM. In addition, the half-maximal inhibitory concentration (IC50) (HEPG2TOX_HILL_SLOPE 1.83, HEPG2TOX_R_SQUARED 0.983, PBLUC_HILL_SLOPE 1.76, PBLUC_R_SQUARED 0.572, read-out: LUCIFERASE INFECTION ASSAY - IC50) worked out at 3.43 µM.

Take `COc1cc(-c2cnc3cnc(-c4cccc(NC(C)=O)c4)cn23)cc(OC)c1OC`: the IC90 is above 7.89 µM. The IC50 under setting [1] amounted to 3.93 µM.

`O=C(Nc1ccc([N+](=O)[O-])cc1)Nc1cccnc1Cl`: the IC90 worked out at 2.05 µM. The IC50 (PBLUC_HILL_SLOPE 2.35, PBLUC_R_SQUARED 0.752, read-out: LUCIFERASE INFECTION ASSAY - IC50) was 0.807 µM.

Regarding `Clc1ccc(CN2CCN(c3ncnc4sccc34)CC2)s1`, the IC90 is above 10 µM. Also, the IC50 (HEPG2TOX_HILL_SLOPE 8.99, HEPG2TOX_R_SQUARED 0.725, PBLUC_HILL_SLOPE 4.78, PBLUC_R_SQUARED 0.254, read-out: LUCIFERASE INFECTION ASSAY - IC50) is 8.3 µM.

Consider `O=C(N/N=C/c1c2ccccc2cc2ccccc12)c1ccc(Br)cc1`, for which the 90% effect concentration (IC90) was above 8.18 µM. In addition, the IC50 under setting [1] was above 8.18 µM.

Turning to `CNc1snc(C)c1C(=O)NCc1csc(-c2ccccc2)n1`, the IC90 came to 4.69 µM. Moreover, the IC50 (HEPG2TOX_HILL_SLOPE 1.65, HEPG2TOX_R_SQUARED 0.956, PBLUC_HILL_SLOPE 1.96, PBLUC_R_SQUARED 0.757, read-out: LUCIFERASE INFECTION ASSAY - IC50) is 1.53 µM.

As to `CCCC/C=C/c1cnc2ccc(NC(CC)CO)nn12` (centres undefined), the IC90 was above 11.4 µM. Where the note is “PBLUC_HILL_SLOPE 1.69, PBLUC_R_SQUARED 0.254, read-out: LUCIFERASE INFECTION ASSAY - IC50”, the IC50 stood at 7.08 µM.

Regarding `N#C/C(=N\Nc1ccc(OC(F)(F)F)cc1)C(=O)C1CC1`, the IC90 was above 11.1 µM. For the same compound, the IC50 (HEPG2TOX_HILL_SLOPE 1.44, HEPG2TOX_R_SQUARED 0.96, PBLUC_HILL_SLOPE 2.87, PBLUC_R_SQUARED 0.372, read-out: LUCIFERASE INFECTION ASSAY - IC50) worked out at 7.46 µM.

As to `Cc1cccc2nc(C(=O)Nc3ccc4c(c3)nc3n4CCCCC3)cn12`, the IC90 is above 10 µM. For the same compound, where the note is “FFLUC_HILL_SLOPE 1.04, FFLUC_R_SQUARED 0.903, PBLUC_HILL_SLOPE 0.368, PBLUC_R_SQUARED 0.555, read-out: LUCIFERASE INFECTION ASSAY - IC50”, the IC50 worked out at 0.159 µM.

On to `O=C(Nc1nc(-c2ccccn2)cs1)c1ccc(-n2cncn2)cc1`, for which the 90% effect concentration (IC90) is 1.2 µM. The IC50 (HEPG2TOX_HILL_SLOPE 1.34, HEPG2TOX_R_SQUARED 0.829, PBLUC_HILL_SLOPE 31.3, PBLUC_R_SQUARED 0.545, read-out: LUCIFERASE INFECTION ASSAY - IC50) was found to be 1.12 µM.

`CCCc1c(C)[nH]c2[nH]n(-c3nc(C)cc(C)n3)c(=O)c2c1=O`: the 90% effect concentration (IC90) is above 10.5 µM. Besides, the IC50 (PBLUC_HILL_SLOPE 2.87, PBLUC_R_SQUARED 0.443, read-out: LUCIFERASE INFECTION ASSAY - IC50) was above 10.5 µM.

Take `CCOC(=O)c1c(NC(=O)CNc2ccccc2CN(C)C2CCCCC2)sc(CC)c1C`: the IC90 was above 10 µM. In addition, the concentration for half-maximal inhibition (IC50) (PBLUC_HILL_SLOPE 1.16, PBLUC_R_SQUARED 0.382, read-out: LUCIFERASE INFECTION ASSAY - IC50) came out at 3.12 µM.

Consider `CN1CCCN(C(=O)C2CCN(c3oc(-c4ccco4)nc3C#N)CC2)c2nc3ccccc3nc21`, for which the IC90 was 4.67 µM. Besides, the IC50 (PBLUC_HILL_SLOPE 11.5, PBLUC_R_SQUARED 0.327, read-out: LUCIFERASE INFECTION ASSAY - IC50) turned out to be 3.86 µM.

`CC(C(=O)NC(N)=O)N(C)Cc1ccc(OCc2ccc(Cl)cc2)cc1` (centres undefined): the IC90 came to 9.89 µM. Further, under “HEPG2TOX_HILL_SLOPE 2.51, HEPG2TOX_R_SQUARED 0.952, PBLUC_HILL_SLOPE 1.26, PBLUC_R_SQUARED 0.93, read-out: LUCIFERASE INFECTION ASSAY - IC50”, the IC50 amounted to 1.73 µM.

As for `Cc1cc([N+](=O)[O-])cc[n+]1[O-]`, the IC90 was above 21.4 µM. Under “PBLUC_HILL_SLOPE 2.57, PBLUC_R_SQUARED 0.305, read-out: LUCIFERASE INFECTION ASSAY - IC50”, the IC50 stood at 14.6 µM.

For the compound `CCC(C)(C)c1ccc(OCC(=O)Nc2cccc(-c3nc(C)sc3C(=O)Nc3cc(Cl)ccc3Cl)c2)c(C(C)(C)CC)c1`, the IC90 was above 10 µM. Under setting [1], the IC50 is above 10 µM.

`COC(=O)c1cc(Br)ccc1NC(=O)c1cccc(S(=O)(=O)N(Cc2ccccc2)c2ccccc2Cl)c1`: the IC90 is above 10 µM. The IC50 under setting [1] was above 10 µM.

Take `O=c1c2ccccc2nnn1CSc1nc2ccccc2c(=O)n1CCC1=CCCCC1`: the IC90 was 9.59 µM. Further, the IC50 (HEPG2TOX_HILL_SLOPE 2.76, HEPG2TOX_R_SQUARED 0.854, PBLUC_HILL_SLOPE 2.95, PBLUC_R_SQUARED 0.421, read-out: LUCIFERASE INFECTION ASSAY - IC50) was found to be 4.55 µM.

`CCOc1cc2c(cc1OCC)CN(c1cnn(-c3nc4ccccc4[nH]3)c(=O)c1Cl)CC2`: the 90% effect concentration (IC90) came out at 2.69 µM. Also, under “HEPG2TOX_HILL_SLOPE 1.71, HEPG2TOX_R_SQUARED 0.884, PBLUC_HILL_SLOPE 7.85, 14.7, PBLUC_R_SQUARED 0.450, 0.666, read-out: LUCIFERASE INFECTION ASSAY - IC50”, the IC50 was found to be 2.1 µM.

Turning to `CC(C)(C)c1cc(C(=O)/C(C#N)=N/Nc2ccc(Cl)cc2)no1`, the IC90 came out at 4.32 µM. Further, for the setting “HEPG2TOX_HILL_SLOPE 1.26, HEPG2TOX_R_SQUARED 0.947, PBLUC_HILL_SLOPE 9.91, PBLUC_R_SQUARED 0.6, read-out: LUCIFERASE INFECTION ASSAY - IC50”, the IC50 was 3.46 µM.

As to `CCc1nc2ccc(C(=O)N3CCCCC3)cn2c1N(C)CCC(C)C`, the IC90 is above 9.26 µM. Under setting [1], the IC50 is above 9.26 µM.

Take `COc1ccc(-c2nc3c(c(SCCN4CCCC4)n2)COC(C)(C)C3)cc1`: the IC90 is above 8.26 µM. For the same compound, the IC50 (PBLUC_HILL_SLOPE 2.26, PBLUC_R_SQUARED 0.135, read-out: LUCIFERASE INFECTION ASSAY - IC50) is 5.35 µM.

With `CC(C)(C)c1ccc(C(=O)NNC(=S)Nc2ccccc2)cc1`, the IC90 is above 10.1 µM. In addition, the IC50 (FFLUC_HILL_SLOPE 0.417, FFLUC_R_SQUARED 0.371, PBLUC_HILL_SLOPE 1.47, PBLUC_R_SQUARED 0.465, read-out: LUCIFERASE INFECTION ASSAY - IC50) is 3.05 µM.

Consider `O=C(N/N=C/c1ccc([N+](=O)[O-])o1)c1ccc(CN2C(=O)c3cccc4cccc2c34)cc1`, for which the IC90 was above 10 µM. In addition, the IC50 under setting [1] is above 10 µM.

Consider `CNc1nc(NCc2ccc(C)cc2C)c2sccc2n1`, for which the concentration for an effect of 90% (IC90) was above 11.1 µM. For the same compound, the IC50 under setting [1] was above 11.1 µM.

For `COc1ccc(Cn2c(C)nc3c(cnn3-c3ccc(Cl)cc3)c2=O)cc1`, the IC90 was above 8.67 µM. The IC50 (HEPG2TOX_HILL_SLOPE 7.21, HEPG2TOX_R_SQUARED 0.304, PBLUC_HILL_SLOPE 6.35, PBLUC_R_SQUARED 0.427, read-out: LUCIFERASE INFECTION ASSAY - IC50) stood at 7.48 µM.

The IC50 is the midpoint of a concentration-inhibition curve. The term IC90 denotes the concentration needed for an effect of 90%.

(Values after ChEMBL document CHEMBL4483862, “Open-source discovery of chemical leads for next-generation chemoprotective antimalarials” (2018).)
